Data as given in PMC6944649, “Population Pharmacokinetics, Efficacy Exposure-response Analysis, and Model-based Meta-analysis of Fenebrutinib in Subjects with Rheumatoid Arthritis” (Pharmaceutical Research, 2020).

What was measured:
[1] = set-up: method as in PMID 29484638; details: Phase 1, cited from earlier work
[2] = system: patients with rheumatoid arthritis; test: Exposure-response (E-R) analysis of longitudinal DAS28 (CRP) in Phase 2 trial GA29350; assay type: in vivo, human
From the text: (§1) GA29350 (ANDES, ClinicalTrials.gov Identifier: NCT02833350) was a multicenter, Phase 2, randomized, double-blind, placebo-controlled, parallel-group, dose-ranging trial to evaluate the efficacy and safety of fenebrutinib in patients with moderate to severe active RA and an inadequate response to previous MTX therapy (cohort 1) or anti-TNF therapy (cohort 2) ([24],[25]).
(§2) In cohort 1, 480 patients were enrolled, and were randomly assigned to 1 of 5 parallel treatment arms (3 fenebrutinib arms, 1 placebo arm, and 1 adalimumab arm). In the fenebrutinib and placebo arms, subjects received 50 mg QD, 150 mg QD, or 200 mg BID fenebrutinib tablets or placebo tablets, together with subcutaneous (SC) placebo injections every other week for 12 weeks (n = 40 in the 50 mg arm, and n = 109 to 111 in each of the other 4 arms). In the active comparator arm, patients received adalimumab 40 mg SC every other week and placebo tablets for 12 weeks. In cohort 2 (n = 98 enrolled), patients received 200 mg fenebrutinib BID or placebo tablets for 12 weeks.
(§3) Treatment responses in RA clinical trials are commonly evaluated by the American College of Rheumatology improvement criteria for 20, 50, and 70% threshold values (ACR20, ACR50, and ACR70, respectively), which is a binary response variable, and by the Disease Activity Score with 28-joint counts (DAS28), which is a continuous variable ([27],[28]). Both types of endpoints can be measured repeatedly during the course of the treatment period. The proportion of patients achieving ACR50 responses and analysis of longitudinal DAS28 (CRP) (DAS based on 28 joints and C-reactive protein value) were evaluated as the primary, key secondary, and secondary endpoints in the Phase 2 trial, and therefore, were of primary interest among clinical efficacy endpoints modeled for fenebrutinib. The E-R analyses aimed to establish the relationship between patient-specific fenebrutinib exposure with clinical efficacy endpoints of interest. […]

[3] = system: BTK; set-up: method as in PMID 29484638; details: healthy volunteers, Phase 1; cited from earlier work
[4] = Population pharmacokinetic (popPK) analysis of fenebrutinib plasma concentrations (Phase 1 GA29347, GP29832 and Phase 2 GA29350); assay type: in vivo, human
Method: Fenebrutinib plasma concentrations were determined by high performance liquid chromatography with tandem mass spectrometry (MS/MS) detection (Covance Laboratories Inc., USA). Calibration plots were linear throughout the range of 0.5 to 500 ng/mL (lower and upper limits of quantification, respectively) for fenebrutinib in human plasma. Relative standard deviation of precision was <7.8%, and the accuracy of the method was between 91.3% and 102.7%.
Fenebrutinib plasma concentrations from subjects providing all available PK data after tablet administration in the clinical studies were integrated into the popPK analysis. The model was characterized initially in healthy subjects ([22]) from the Phase 1 multiple ascending dose (MAD) (GA29347) and a Phase 1 relative bioavailability/food effect/drug-drug interaction (GP29832, ClinicalTrials.gov Identifier: NCT02699710) studies, and later updated to incorporate the Phase 2 data from the three fenebrutinib-treated arms in patients with RA.
The popPK model was developed by introducing features in the order of increasing complexity, beginning with very simple models (e.g. one-compartment with first-order elimination), and continuing until further improvement in model fit was not supported by the data.
Covariate analysis first investigated the effects of pre-defined demographic, laboratory, prognostic, and treatment covariates on all the model parameters by using univariate screening. If >10% of a covariate was missing, the covariate was not included in the popPK analysis. Otherwise, the value of missing covariate observations was imputed as the median of the remaining values from an appropriate sub-population. For example, the missing baseline body weight value was imputed as the gender-adjusted median body weight of the remaining subjects. For categorical covariates, the most frequently occurring value was imputed for subjects with missing values in each trial. Concomitant proton pump inhibitor (PPI) and food were categorized as time-varying covariates, whereas the other categorical covariates were considered as baseline (non-time-varying) covariates. Next, covariates selected from the univariate screening (p value <0.05) were included in the evaluation of a full model followed by backwards elimination (p value <0.01). Effects of continuous covariates were incorporated into the model using the power function and normalized using the median of the covariate. Effects of categorical covariates were parameterized as proportional effects in the model, in which the fractional change on a model parameter was estimated, and the typical category constituted the largest proportion in the analysis population.
The final model was determined on the basis of objective function value, physiological plausibility of model parameter estimates, numerical convergence success, parameter estimate precision (relative standard errors <50%), and visual predictive check (VPC) plots. Goodness-of-fit plots were produced to verify the general agreement of fitted values with observed data. Prediction-corrected visual predictive check (pcVPC) was performed by normalizing the observed and simulated dependent variable based on the typical population prediction for the median independent variable in the bin ([26]). The pcVPC was stratified to evaluate the covariate effects of interest, whenever applicable. […]
Model development was carried out using first order conditional estimation with interaction (FOCE-I) as implemented in NONMEM (version 7.3, ICON Development Solutions, Ellicott City, MD). Post-processing of NONMEM analysis results was carried out in R (version 3.2.2, R Development Core Team, 2008).

[5] = Phase 1 relative bioavailability/food effect/drug-drug interaction study (GP29832), non-compartmental analysis; assay type: in vivo, human; details: healthy volunteers
[6] = system: patients with rheumatoid arthritis; test: Model-based meta-analysis (MBMA) of ACR20, ACR50, ACR70; assay type: in vivo, human
Method: An efficacy and safety meta-analysis database was constructed in July 2017 using publicly available data of randomized trials in RA, based on the guidelines in the Cochrane Handbook for Systematic reviews. For this, a systematic review of publicly available data from the PubMed, Cochrane Library, and Embase databases was conducted using the search term “rheumatoid arthritis”. Furthermore, an existing database that contained data published in or before 2012 ([30]) was augmented using an additional, systematic, and quality-controlled procedure to search for relevant published studies, extract their data, and add to the existing database yielding pertinent data published through 2017.
The summary data of the database were explored systematically to determine the amount of data available for each treatment, efficacy and safety endpoint across trials, distribution of mean patient characteristics, and to graphically view the time course of longitudinal endpoints, placebo effect, active treatment effect from each of the comparator treatments, and the effects of patient and trial characteristics. Response rates of ACR20, ACR50, and ACR70 in terms of the proportion of patients achieving specified thresholds were the most prevalent efficacy endpoints in the database, and therefore, were chosen as the variables for model development using MBMA. Because of the relatively few adverse events observed in the fenebrutinib Phase 2 trial in RA ([24]), MBMA for safety events, such as serious infections, was not conducted.
The model simultaneously fit ACR20, ACR50, and ACR70 longitudinal data, and a non-linear mixed effects (NLME) estimation method was carried out using R. This hierarchical regression model used maximum likelihood estimation, and multiple levels of heterogeneity were described as mixed effect variability terms accommodating between-trial and within-trial variability. […]
The adequacy of model fits across trials was evaluated by visually inspecting time course plots of observed distributions vs. predicted values. […]

[7] = system: patients with rheumatoid arthritis; test: Exposure-response (E-R) analysis of longitudinal ACR20, ACR50, ACR70 in Phase 2 trial GA29350; assay type: in vivo, human
From the text: as §1, §2, §3

C[C@H]1CN(C2COC2)CCN1c1ccc(Nc2cc(-c3ccnc(N4CCn5c(cc6c5CC(C)(C)C6)C4=O)c3CO)cn(C)c2=O)nc1 [fenebrutinib]
accumulation ([1]; following twice daily dosing): modest accumulation | increase of plasma exposures with dose ([1]; healthy subjects): approximately dose-proportionally | steady-state half-life ([1]; healthy subjects): 4.2 to 9.9 h | time of peak plasma concentrations after oral administration ([1]; healthy subjects): 1 to 3 h | Time of 50% drug effect ([2]; DAS28 (CRP) E-R model θ4): 47 days | Maximum drug effect over time (DAS28) ([2]; DAS28 (CRP) E-R model θ6): -0.964 | ω2Max drug effect ([2]; DAS28 (CRP) E-R model ω2.2, inter-individual variability): 0.283 | inhibition of BTK [3]: dose- and concentration-dependent inhibition | apparent clearance (CL/F) decrease with concomitant administration of PPI ([4]; concomitant PPI): 33.7% | CL/F: Apparent systemic clearance ([4]; final popPK model estimate θ1, oral, typical RA patient): 19.5 L/h | NTR: Number of transit compartments ([4]; final popPK model estimate θ7, transit compartment absorption model): 14.9 | MTT: Mean transit time ([4]; final popPK model estimate θ8): 0.849 h | Food effect on MTT ([4]; final popPK model estimate θ11, covariate effect): 1.43 | PPI effect on MTT ([4]; final popPK model estimate θ12, concomitant proton pump inhibitor): 0.835 | PPI and food effect on MTT ([4]; final popPK model estimate θ13): 2.26 | PPI effect on F1 ([4]; final popPK model estimate θ14, F1 relative extent of absorption): 0.657 | PPI and food effect on F1 ([4]; final popPK model estimate θ15): 0.693 | Food effect on NTR ([4]; final popPK model estimate θ16): 0.864 | Tablet effect on NTR ([4]; final popPK model estimate θ17, formulation effect): 0.049 | Vd/F ([4]; human, plasma, oral, final popPK model estimate θ2, read-out: V1/F: Apparent central volume of distribution): 381 L | ω^2CL/F ([4]; inter-individual variability ω1.1): 0.0732 | ω^2V1/F ([4]; inter-individual variability ω2.2): 0.100 | ω^2MTT ([4]; inter-individual variability ω8.8): 0.0861 | ω^2F1 ([4]; inter-individual variability ω9.9): 0.131 | ω^2IOV on F1 ([4]; inter-occasion variability ω10.1): 0.299 | higher apparent clearance in healthy subjects than patients with RA ([4]; two Phase 1 studies vs Phase 2 trial): 52% | PPI effect on Cmax [5]: PPI decreases the Cmax | food effect on concentration-time profile and Tmax [5]: food blunts the concentration-time profile and delays the Tmax | efficacy in terms of ACR20, ACR50, and ACR70 compared to the registrational doses of adalimumab and tofacitinib ([6]; MBMA simulation, 200 mg BID, TNF-IR patients, 12 weeks after initiation of treatment): comparable efficacy | ED50, dose at which 50% of efficacy ([6]; calculated from E-R EC50 and fixed in MBMA model): 525 mg/week | Max drug effect over time - Eastern Europe ([7]; ACR20/50/70 E-R model θ9, logit scale): 1.39 | Max drug effect over time - Latin America ([7]; ACR20/50/70 E-R model θ14): 2.06 | efficacy versus exposure (ACR responses and DAS28 (CRP)) ([7]; graphical exploration and model-based simulation, cohort 1 MTX-IR patients, exposure range of Phase 2 study): plateau of efficacy was achieved

adalimumab [reference compound]
ACR20, ACR50, and ACR70 response rates in arm of the fenebrutinib Phase 2 trial versus historical data ([6]; adalimumab 40 mg SC every other week arm, MBMA): consistent with historical data
